Converted amounts (≈) assume the structure as drawn. Where two headings read alike, the source gives them in different places.
T1: CYP125 (Mycobacterium tuberculosis, UniProt P9WPP1)
T1 sequence (P9WPP1 1-433): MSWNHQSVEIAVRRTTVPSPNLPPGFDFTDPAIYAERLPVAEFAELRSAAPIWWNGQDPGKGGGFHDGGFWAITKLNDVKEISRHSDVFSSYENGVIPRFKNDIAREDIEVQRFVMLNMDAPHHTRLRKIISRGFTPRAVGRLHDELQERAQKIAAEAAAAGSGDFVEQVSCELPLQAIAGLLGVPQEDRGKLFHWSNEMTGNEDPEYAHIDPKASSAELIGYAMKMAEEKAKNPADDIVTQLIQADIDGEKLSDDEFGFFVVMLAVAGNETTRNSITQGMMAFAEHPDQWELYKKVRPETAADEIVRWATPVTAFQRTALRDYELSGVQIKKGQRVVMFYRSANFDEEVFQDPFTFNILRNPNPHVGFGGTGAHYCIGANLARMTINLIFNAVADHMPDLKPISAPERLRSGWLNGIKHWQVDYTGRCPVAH

T2: CYP144TR (Mycobacterium tuberculosis, UniProt P9WPL1)
T2 sequence (P9WPL1 31-434 limits assumed): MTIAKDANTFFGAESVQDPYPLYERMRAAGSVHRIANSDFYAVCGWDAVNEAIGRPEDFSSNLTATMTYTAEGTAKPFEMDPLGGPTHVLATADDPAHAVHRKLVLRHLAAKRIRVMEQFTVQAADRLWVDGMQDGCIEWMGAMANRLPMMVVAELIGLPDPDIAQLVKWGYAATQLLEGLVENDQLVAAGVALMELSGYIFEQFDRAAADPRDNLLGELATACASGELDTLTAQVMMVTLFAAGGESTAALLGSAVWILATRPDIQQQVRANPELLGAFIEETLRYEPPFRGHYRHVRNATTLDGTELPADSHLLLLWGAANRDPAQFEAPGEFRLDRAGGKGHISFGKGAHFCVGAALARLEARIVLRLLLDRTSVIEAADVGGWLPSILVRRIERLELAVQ

B1: Mycobacterium tuberculosis CYP121 (Rv2276), His6-tagged construct (enzyme)
chain: MTATVLLEVPFSARGDRIPDAVAELRTREPIRKVRTITGAEAWLVSSYALCTQVLEDRRFSMKETAAAGAPRLNALTVPPEVVNNMGNIADAGLRKAVMKAITPKAPGLEQFLRDTANSLLDNLITEGAPADLRNDFADPLATALHCKVLGIPQEDGPKLFRSLSIAFMSSADPIPAAKINWDRDIEYMAGILENPNITTGLMGELSRLRKDPAYSHVSDELFATIGVTFFGAGVISTGSFLTTALISLIQRPQLRNLLHEKPELIPAGVEELLRINLSFADGLPRLATADIQVGDVLVRKGELVLVLLEGANFDPEHFPNPGSIELDRPNPTSHLAFGRGQHFCPGSALGRRHAQIGIEALLKKMPGVDLAVPIDQLVWRTRFQRRIPERLPVLW

Tests used:
CYP121 [1] = molecular target: T3, CYP121 (Mycobacterium tuberculosis, UniProt P9WPP7); experiment: Native mass spectrometry of CYP121 with ligands; type: binding
CYP121 [2] = molecular target: T3, CYP121; type: binding
CYP125 = molecular target: T1, CYP125; experiment: Single shot UV–vis binding mode assay on CYP125
[3] = test system: CYP1A (combined CYP1A1 and CYP1A2); experiment: Human P450 inhibition in human liver microsomes, CYP1A (ethoxyresorufin); settings: human
CYP121 [4] = molecular target: T3, CYP121; experiment: Single shot UV–vis absorbance assay (Soret band shift, competition with type II inhibitor) on CYP121; type: binding; settings: for Binding Mode, CYP121: analogues 100 μM or 1 mM, P450 2.5–5 μM
CYP144TR = molecular target: T2, CYP144TR
Mtb H37Rv = experiment: Antimycobacterial activity assay (MIC90); type: cell-based, Mycobacterium tuberculosis; design: key to MIC90: “N” indicates that compounds did not produce any significant cell death within the tested concentration range; settings: triplicate, 0–100 μM, 2 weeks
CYP1A = experiment: Human P450 inhibition in human liver microsomes, CYP1A (ethoxyresorufin); settings: IC50 for CYP1A versus CYP121 KD
CYP143 = molecular target: T4, CYP143 (Mycobacterium tuberculosis, UniProt P9WPL3); experiment: Single shot UV–vis binding mode assay on CYP143; settings: analogues 100 μM or 1 mM, P450 2.5–5 μM
T4 construct: made in house
Experimental: UV–vis screening was performed using a CARY400 UV–vis spectrophotometer (Varian, CA, USA). Ligands were prepared as DMSO-d6 stock solutions (1–100 mM) and added to protein (5 μM) solutions (198 μL) or to buffer alone to give a final DMSO-d6 concentration of 1% v/v. CYP121 was prepared in 50 mM Tris-HCl (pH 7.2), 1 mM EDTA buffer. CYP125, CYP126, CYP142, CYP143, and CYP144 were prepared in 50 mM Tris-HCl (pH 7.5), 100 mM KCl buffer. CYP124 was prepared in 100 mM potassium phosphate (pH 7.0), 100 mM KCl buffer. Spectra were recorded between 800 and 250 nm at 25 °C. Any spectral interference from the inherent absorbance of added ligands/solvent was removed by subtracting spectra collected for protein-free samples of the same ligands/solvent in buffer. The difference in Soret wavelength maximum (Δλmax) of the respective P450s Soret band (λmax) in the presence of ligands compared to that obtained for a 1% v/v DMSO-d6 control was used to identify type I or type II heme-binding interactions. […]
The difference in the red-shift of the Soret band between competition assays and that found for the known type II ligand in the absence of competing ligands was used to determine competitive binding. Buffer control spectra were collected to account for any inherent absorbance of added ligands/solvent and all solutions were inspected and found to be free of precipitate. […]

native MS = molecular target: the molecule itself; experiment: native MS

T4 sequence (P9WPL3 whole entry): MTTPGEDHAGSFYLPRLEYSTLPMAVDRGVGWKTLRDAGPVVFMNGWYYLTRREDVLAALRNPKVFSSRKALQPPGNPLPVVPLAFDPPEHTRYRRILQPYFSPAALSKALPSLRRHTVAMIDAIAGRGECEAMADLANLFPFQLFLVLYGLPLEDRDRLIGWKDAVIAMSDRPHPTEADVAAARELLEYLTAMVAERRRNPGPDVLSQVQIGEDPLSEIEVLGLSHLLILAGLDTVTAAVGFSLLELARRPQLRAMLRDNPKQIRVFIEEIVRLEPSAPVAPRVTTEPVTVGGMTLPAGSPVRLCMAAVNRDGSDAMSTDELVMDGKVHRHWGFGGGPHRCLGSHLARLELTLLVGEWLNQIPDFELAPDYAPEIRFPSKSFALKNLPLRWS

Molecule	Monomer (%) of CYP121 (CYP121 [1]; Protein-Ligand Ratio 1:0.5)	ligand binding stoichiometry, CYP121 Dimer (CYP121 [1]; Protein-Ligand Ratio 1:0.5)	ligand binding stoichiometry, CYP121 Monomer (CYP121 [1]; Protein-Ligand Ratio 1:0.5)	Monomer (%) of CYP121 (CYP121 [1]; Protein-Ligand Ratio 1:1)	ligand binding stoichiometry, CYP121 Dimer (CYP121 [1]; Protein-Ligand Ratio 1:1)	ligand binding stoichiometry, CYP121 Monomer (CYP121 [1]; Protein-Ligand Ratio 1:1)	Monomer (%) of CYP121 (CYP121 [1]; Protein-Ligand Ratio 1:25)	ligand binding stoichiometry, CYP121 Dimer (CYP121 [1]; Protein-Ligand Ratio 1:25)	ligand binding stoichiometry, CYP121 Monomer (CYP121 [1]; Protein-Ligand Ratio 1:25)	LE (ligand efficiency) (CYP121 [2])	Binding Mode, CYP125 (CYP125)	Binding Mode, CYP144TR (CYP144TR)	Binding Mode, CYP121 (CYP121 [4])	Binding Mode, CYP143 (CYP143)	MIC90 (Mtb H37Rv)	further results
Nc1cccc(-c2cccc(-c3c(-c4ccc(O)cc4)n[nH]c3N)c2)c1 [25a, 4-(5-Amino-4-(3′-amino-[1,1′-biphenyl]-3-yl)-1H-pyrazol-3-yl)phenol]	14%	1	1	13%	2	1	0%	2	1	0.41	N	N	–	–	–	selectivity ratio [3]: ~15000; shifts in the CYP121 optical spectrum (CYP121 [4]; UV–vis spectroscopy): type II shifts; Δλmax (type II shift) (CYP121 [4]; ligand 100 μM, CYP121): +5.0 nm; MIC90 (Mtb H37Rv; Mycobacterium tuberculosis, 336 h, read-out: MIC90): 100 µM (≈ 34.2 µg/mL)
Nc1cccc(-c2cc(-c3c(-c4ccc(O)cc4)n[nH]c3N)ccc2O)c1 [25b, 3′-Amino-5-(5-amino-3-(4-hydroxyphenyl)-1H-pyrazol-4-yl)-[1,1′-biphenyl]-2-ol]	–	–	–	–	–	–	–	–	–	–	N	N	–	–	–	–
Oc1ccc(CNc2[nH]nc(-c3ccc(O)cc3)c2-c2ccc(O)cc2)cc1 [26a, 4,4′-(5-((4-Hydroxybenzyl)amino)-1H-pyrazole-3,4-diyl)diphenol]	14%	1	0	29%	1	0	14%	2	1	0.25	–	N	N	N	N	app SR (IC50/KD) (CYP1A): >4
O=c1cc(-c2ccccc2)oc2c1ccc1ccccc12 [alpha-naphthoflavone, reference compound]	–	–	–	–	–	–	–	–	–	–	–	–	–	–	–	IC50 ([3]; microsomes): 59.7 nM
Nc1[nH]nc(-c2ccc(O)cc2)c1-c1ccc(O)cc1 [compound 5, 4,4′-(5-Amino-1H-pyrazole-3,4-diyl)diphenol]	–	–	–	–	–	–	–	–	–	–	N	N	N	N	N	LE (ligand efficiency) (CYP121 [2]; Gibbs free energy of binding to CYP121 divided by number of heavy atoms (ΔG/HA)): 0.30
B1	–	–	–	–	–	–	–	–	–	–	–	–	–	–	–	stoichiometry N (native MS): 2

Source: paper PMC4835159 (Journal of Medicinal Chemistry, 2016)
